Source: patent publication US20170042870A1, “TARGETED NANOPARTICLE COMPOSITIONS AND METHODS OF THEIR USE TO TREAT OBESITY” (priority 2014, published 2017)

What was measured:
[1] = tested on: CD31+ SVF; assay: Integrinαv antibody staining of CD31-sorted SVF; assay type: cell-based, mice; conditions: in vitro
Experimental: Angiogenic vessels usually express high levels of integrins, particularly αv and β3 subunits. To evaluate whether Rosi-loaded NPs can effectively induce expression of integrins on vascular cells, the stromal vascular fragments (SVF) were isolated from WAT, followed by treatment with Rosi (1 μM) in either solution or non-targeted NP form. CD31+ SVF was sorted and stained with Integrinαv antibody, Isolectin B4 and DAPI. C57Bl/6 mice were treated with Rosi, NP-Rosi, iRGD-NP-Rosi or P3-NP-Rosi for two weeks (n=3). IngWAT, epiWAT and livers were dissected and representative samples were imaged under IVIS imaging system. Inguinal WAT and epididymal WAT were dissected and representative samples were photographed.
It should also be noted that no evidence of cellular toxicity was observed under all the conditions. SVFs were sorted with an endothelial marker CD31, and stained cells with an Integrinαv antibody.

[2] = Body weight gain and food intake in DIO mice; assay type: in vivo, C57Bl/6 mice; conditions: 25 days post treatment, vs non-treated obese mice
Excerpt: All animal studies were approved by the Committee on Animal Care, Massachusetts Institute of Technology. 6-week-old male wild-type mice and 10-week-old male diet-induced obese mice, of the C57Bl/6 strain, were used in current studies. High-fat-diet (TD-06414, 60/Fat) was purchased from Harlan Laboratories, and was used to induce and maintain obesity in C57Bl/6 mice.
Standard diet fed or high-fat-diet fed C57Bl/6 mice were intravenous injected with either NP constructs or free drug (rosiglitazone or 16,16-dimethyl-PGE2) at the drug dose of 80 mg/kg, every second day. Free Rosi was dissolved in DMSO followed by dilution in saline.
The high-fat-diet induced obese model was used to assess the possible impact of the two peptide-NP-Rosi on body weight, tissue histology, and molecular expression profiles. There was no difference in body weight gain between the mice treated with Rosi (in solution and non-targeted NP forms) and non-treated obese mice (FIGS. 5A and B).

[3] = tested on: stromal vascular fragments (SVF) from WAT; assay: qRT-PCR of integrin expression in SVF treated in vitro; assay type: cell-based, mice; conditions: Rosi 1 μM
Experimental: (§1) WAT was dissected and extensively washed with Hank's Balanced Salt Solution (HBSS, Invitrogen). Tissues were cut into small pieces using a surgical scissor, and digested with 0.1% collagenase A in HBSS and 1% bovine serum albumin (SigmaAldrich) for 30 minutes at 37 C with gentle shaking. The digested tissues were suspended in Dulbecco's modified Eagle's medium containing 10% fetal bovine serum, and then passed through a 100 μm cell strainer (BD Falcon) to remove debris. Subsequently, cell suspension was centrifuged for 10 minutes at 300×g. 3. After removal of the floating cell layer and supernatant, the cell pellet was resuspended in 10 ml of HBSS, and then filtered through a 40 μm cell strainer (BD Falcon). The filtered cell suspension was layered on top of a Histopaque-1077 solution (10 ml) in a 50 ml tube, and then centrifuged at 400 g for 30 min at room temperature. The SVF cell layer at the gradient interface was collected and washed with HBSS. Cell counts and viability assessment were performed. Primary SVF or sorted cells were maintained in DMEM plus 10% FCS, 1% penicillin/streptomycin, and 10 ng/ml murine bFGF (R&D Systems).
(§2) Angiogenic vessels usually express high levels of integrins, particularly αv and β3 subunits. […]

[4] = Serological parameters in fasted DIO mice; assay type: in vivo, C57Bl/6 mice; conditions: 25 days
Experimental: Serum levels of free fatty acid, glucose, triglycerides and cholesterol contents from fasted obese mice were determined by standard kits from Cayman Chemical Co. (Ann Arbor, Mich.). Serum insulin from fasted obese mice was determined by ELISA method according to manufacturer's protocol (Millipore, Billerica, Mass.).
Serum was collected from DIO mice that were fasted for five hours following 25 days of treatments, and analyzed for levels of serological parameters.

[5] = tested on: stromal vascular fragments (SVF) from WAT; assay: Proliferation and cellular toxicity of SVF; assay type: cell-based, mice; conditions: in vitro
Experimental: as §1, §2

## CN(CCOc1ccc(CC2SC(=O)NC2=O)cc1)c1ccccn1 (racemic) [Rosi, (RS)-5-[4-(2-[methyl(pyridin-2-yl)amino]ethoxy)benzyl]thiazolidine-2,4-dione]
[1]
  Integrinαv on CD31-sorted SVF (antibody staining): upregulated
[2]
  body weight gain: no difference
[3]
  expression level of Integrinαv on SVF (qRT-PCR): elevated the expression levels of Integrinαv
[4]
  reduction of serum insulin: 3 folds
[5]
  proliferation of SVF: stimulated the proliferation of SVF
